Test results published in BindingDB's records for doi:10.7270/Q23F4N3R (Burnham Center For Chemical Genomics, 2011).

Experiment: HK1 enzyme inhibitors – biochemical, selectivity assay for HKDC1 inhibitor project, dose response (AID 504763)
[1] = inactive by the depositor's call

| SMILES | IC50 | IC50 [1] |
| --- | --- | --- |
| O=C(O)[C@@H](c1ccccc1)N1Cc2ccccc2C1=O | > 80 µM |  |
| CCOC(=O)c1ccc(NC2=CC(=O)C(=O)c3ccccc32)cc1 | > 80 µM |  |
| CCc1ccc(S(=O)(=O)N=C2C=C(Sc3nnc[nH]3)C(=O)c3ccccc32)cc1 | 2.85 µM |  |
| COC(=O)c1ccccc1NC1=CC(=NS(=O)(=O)c2ccc(C(=O)O)cc2)c2ccccc2C1=O | 5.77 µM |  |
| O=C(O)c1ccc(S(=O)(=O)N=C2C=C(Nc3ccccc3F)C(=O)c3ccccc32)cc1 | 6.02 µM |  |
| CCc1ccc(S(=O)(=O)N=C2C=C(Nc3ccc(C(=O)O)cc3)C(=O)c3ccccc32)cc1 | 6.89 µM |  |
| NC1=CC(=O)C(=O)c2ccccc21 |  | 57.8 µM |
| CC(=O)N(C1=C(Cl)C(=O)c2ccccc2C1=O)C1CCCCC1 | 10.2 µM |  |
| C=CCN1C=C2C(=O)C(C)(OC(=O)CCC(=O)OC)C(=O)C(Br)=C2C=C1c1ccc(OC)cc1 (stereo not drawn) | > 80 µM |  |
| Cc1cccc(-n2c3nc(=O)[nH]c(=O)c-3cc3cc([N+](=O)[O-])ccc32)c1 | > 80 µM |  |
| Cc1ccc(/N=C/C2=CC(Cc3ccccc3Cl)C=C([N+](=O)[O-])C2=O)c(O)c1 (stereo not drawn) | > 80 µM |  |
| Oc1ccc(CN=Nc2ncc(Br)cn2)c(O)c1 | > 80 µM |  |
| O=c1c2ccccc2nc(/C=C/c2cccnc2)n1CCc1ccccc1 | > 80 µM |  |
| Cc1[nH]c2ccccc2c1C1=CC(=O)C=CC1=O | 9.71 µM |  |
| COC(=O)c1ccc(NC(=O)CSc2n[nH]c(-c3ccncc3)n2)cc1 |  | 22.5 µM |
| CCOC(=O)c1ccc(NC(=O)CSc2n[nH]c(-c3ccncc3)n2)cc1 | 10.5 µM |  |
| COc1ccc(Cn2c(O)c3[nH]cccc-3c2=O)cc1 | > 80 µM |  |
| Cc1cc(C)n2nc(SCc3nnc(SCc4ccccc4Cl)s3)nc2n1 |  | 23.2 µM |
| O=C(CSc1nnc(CCCN2C(=O)c3cccc4cccc(c34)C2=O)n1-c1ccccc1)N1CCCCC1 | 9.74 µM |  |
| Cc1ccc(N2C(=O)NC(=O)C(=Cc3cc(C)n(-c4sc5c(c4C#N)CCCC5)c3C)C2=O)cc1 | > 80 µM |  |
| Cc1ccc(-n2c3nc(=O)[nH]c(=O)c-3cc3cc([N+](=O)[O-])ccc32)cc1C |  | 36.6 µM |

| SMILES | IC50 | IC50 [1] |
| --- | --- | --- |
| Cc1ccc2cc(CCNC(=O)c3ccc(S(=O)(=O)N4CCCCC4)cc3)c(O)nc2c1 | 6.04 µM |  |
| Cc1nc2c(c(=O)c3ccccc3n2C)c(=O)n1-c1ccccc1 | 15.3 µM |  |
| O=S(=O)(O)c1ccc(O)c2cc(Nc3ccccc3)ccc12 | > 80 µM |  |
| NC1=C(Br)C(=O)c2ncccc2C1=O | 13.8 µM |  |
| CCCC(=O)NC1=C(Cl)C(=O)c2ccccc2C1=O | 3.06 µM |  |
| CC(Nc1cc(O)c2cccnc2c1O)C(=O)c1ccccc1 (stereo not drawn) | 75.1 µM |  |
| CN1c2ccc(C=O)c3c(C=O)ccc(c23)N(C)C1(C)C [1,2,2,3-tetramethyl-2,3-dihydro-1H-perimidine-6,7-dicarbaldehyde] | 18.8 µM |  |
| Cc1ccc(C)c(-n2nnnc2Sc2nnnn2-c2ccccc2)c1 [1-(2,5-dimethylphenyl)-5-(1-phenyltetrazol-5-yl)sulfanyltetrazole] | > 80 µM |  |
| O=C1C(Cl)=C(N2CCC(C(=O)O)CC2)C(=O)c2ccccc21 [1-(3-chloro-1,4-dioxo-2-naphthalenyl)-4-piperidinecarboxylic acid] | 13.5 µM |  |
| COC(=O)C1CN(C#N)N(c2ccc(Cl)cc2)C12c1ccccc1-c1ccccc12 (stereo not drawn) [2'-(4-chlorophenyl)-1'-cyano-4'-spiro[fluorene-9,3'-pyrazolidine]carboxylic acid methyl ester] | > 80 µM |  |
| O=c1c2ccccc2nc2n1CCC2 [2,3-dihydropyrrolo[2,1-b]quinazolin-9(1H)-one] | > 80 µM |  |
| COC1=C(OC)C(=O)C(Sc2ccc3ccccc3c2)=CC1=O [2,3-dimethoxy-5-naphthalen-2-ylsulfanylcyclohexa-2,5-diene-1,4-dione] | 7.15 µM |  |
| CCN(CC)Cc1cc(O)c(CN(CC)CC)cc1O [2,5-bis(diethylaminomethyl)benzene-1,4-diol] |  | 55.3 µM |
| CN(C)Cc1cc(O)c(CN(C)C)cc1O [2,5-bis[(dimethylamino)methyl]benzene-1,4-diol] | > 80 µM |  |
| CC(C)(C=O)C1=CC(=O)c2ccccc2C1=O [2-(1,4-dioxo-2-naphthalenyl)-2-methylpropanal] | > 80 µM |  |
| O=C1C(N2CCOCC2)=C(n2nnc3ccccc32)C(=O)c2ccccc21 [2-(1-benzotriazolyl)-3-(4-morpholinyl)naphthalene-1,4-dione] | 7.58 µM |  |
| COc1ccc(NC(=O)Cc2c[nH]c3ccccc23)cc1S(=O)(=O)N1CCCCC1 [2-(1H-indol-3-yl)-N-(4-methoxy-3-piperidin-1-ylsulfonylphenyl)acetamide] | > 80 µM |  |
| O=C(NCCc1ccccc1)C(c1cccs1)N(C(=O)CCl)c1ccc(Cl)cc1 (stereo not drawn) [2-(4-chloro-N-(2-chloro-1-oxoethyl)anilino)-N-(2-phenylethyl)-2-thiophen-2-ylacetamide] | > 80 µM |  |
| Cc1nc([N+](=O)[O-])c(Br)n1CC(=O)c1ccc2ccccc2c1 [2-(5-bromanyl-2-methyl-4-nitro-imidazol-1-yl)-1-naphthalen-2-yl-ethanone] | > 80 µM |  |
| Cc1ccc(SC2=C(N(C)C)C(=O)c3ccccc3C2=O)cc1 [2-(dimethylamino)-3-[(4-methylphenyl)thio]naphthalene-1,4-dione] | 19.7 µM |  |
| Cc1ccc(C(=O)c2c(C)oc3c2C(=O)C(=O)c2ccccc2-3)cc1 [2-Methyl-3-(4-methyl-benzoyl)-naphtho[1,2-b]furan-4,5-dione] |  | 21.5 µM |

| SMILES | IC50 | IC50 [1] |
| --- | --- | --- |
| Cc1cc(C)c(S(=O)(=O)Nc2cc(SCC(=O)O)c(O)c3ccccc23)cc1C [2-[1-hydroxy-4-[(2,4,5-trimethylphenyl)sulfonylamino]naphthalen-2-yl]sulfanylacetic acid] | 14.2 µM |  |
| O=C(O)CSc1cc(NS(=O)(=O)c2cccc([N+](=O)[O-])c2)c2ccccc2c1O [2-[1-hydroxy-4-[(3-nitrophenyl)sulfonylamino]naphthalen-2-yl]sulfanylacetic acid] |  | 29.4 µM |
| O=C(CSc1nnc(CCCN2C(=O)c3cccc4cccc(c34)C2=O)n1-c1ccccc1)N1CCN(CCO)CC1 [2-[3-[5-[[2-[4-(2-hydroxyethyl)-1-piperazinyl]-2-oxoethyl]thio]-4-phenyl-1,2,4-triazol-3-yl]propyl]benzo[de]isoquinoline-1,3-dione] | 7.31 µM |  |
| Cc1cccc(N2C(=O)NC(=O)C(=Cc3cc(C)n(-c4sc5c(c4C#N)CCCC5)c3C)C2=O)c1C [2-[3-[(E)-[1-(2,3-dimethylphenyl)-2,4,6-trioxo-1,3-diazinan-5-ylidene]methyl]-2,5-dimethylpyrrol-1-yl]-4,5,6,7-tetrahydro-1-benzothiophene-3-carbonitrile] | > 80 µM |  |
| Cc1ccc(C)c(S(=O)(=O)Nc2cc(SCC(=O)O)c(O)c3ccccc23)c1 [2-[4-[(2,5-dimethylphenyl)sulfonylamino]-1-hydroxynaphthalen-2-yl]sulfanylacetic acid] | 16.4 µM |  |
| O=C(O)CSc1cc(NS(=O)(=O)c2ccc(Cl)cc2)c2ccccc2c1O [2-[4-[(4-chlorophenyl)sulfonylamino]-1-hydroxynaphthalen-2-yl]sulfanylacetic acid] | 16.7 µM |  |
| O=C(O)COc1ccc(C=NNC(=O)c2ccc(-c3csc(Nc4ccc(Cl)cc4)n3)cc2)cc1 [2-[4-[[[4-[2-(4-chloroanilino)-1,3-thiazol-4-yl]benzoyl]hydrazinylidene]methyl]phenoxy]acetic acid] | > 80 µM |  |
| Cc1cc(C)n2cc(CSc3nnc(-c4ccccc4)c(-c4ccccc4)n3)nc2n1 [2-[(5,6-diphenyl-1,2,4-triazin-3-yl)sulfanylmethyl]-5,7-dimethyl-imidazo[1,2-a]pyrimidine] | 11.4 µM |  |
| O=C(CSc1nnc(-c2cccnc2)[nH]1)Nc1ccnc2ccccc12 [2-[(5-pyridin-3-yl-1H-1,2,4-triazol-3-yl)sulfanyl]-N-quinolin-4-yl-ethanamide] | 11 µM |  |
| [H]/N=C(\N/C(=N/[H])NCCCCCCNC(=N)NC(=N)Nc1ccc(Cl)cc1)Nc1ccc(Cl)cc1 [2-[amino-[6-[[amino-[(E)-[amino-(4-chloroanilino)methylidene]amino]methylidene]amino]hexylimino]methyl]-1-(4-chlorophenyl)guanidine] | > 80 µM |  |
| COc1cc(NC(=O)c2cnc(N)s2)cc(C(=O)Nc2cccc(C(F)(F)F)c2)c1 [2-amino-N-[3-methoxy-5-[[3-(trifluoromethyl)phenyl]carbamoyl]phenyl]-1,3-thiazole-5-carboxamide] | > 80 µM |  |
| O=C(C1=C(c2ccccc2)C(=O)c2ccccc2C1=O)c1ccccc1 [2-benzoyl-3-phenylnaphthoquinone] | 7.24 µM |  |
| CCOc1ccc(-n2c(C)cc(C(=O)CCl)c2C)cc1 [2-chloranyl-1-[1-(4-ethoxyphenyl)-2,5-dimethyl-pyrrol-3-yl]ethanone] | > 80 µM |  |
| COc1ccc(-n2c(C)cc(C(=O)CCl)c2C)cc1 [2-chloranyl-1-[1-(4-methoxyphenyl)-2,5-dimethyl-pyrrol-3-yl]ethanone] | > 80 µM |  |
| CC(=O)n1cc(N(C(=O)CCl)c2ccc([N+](=O)[O-])cc2)c2ccccc21 [2-chloranyl-N-(1-ethanoylindol-3-yl)-N-(4-nitrophenyl)ethanamide] | > 80 µM |  |
| O=C1C(Cl)=C(Oc2ccccc2)C(=O)c2ccccc21 [2-chloro-3-phenoxynaphthalene-1,4-dione] | 10 µM |  |
| O=C(O)c1cc(N2N=C(C(F)(F)F)/C(=C/C=C/c3ccco3)C2=O)ccc1Cl [2-chloro-5-[4-[3-(2-furyl)-2-propenylidene]-5-oxo-3-(trifluoromethyl)-4,5-dihydro-1H-pyrazol-1-yl]benzoic acid] | > 80 µM |  |
| CCn1cc(C(=O)NCc2ccc3c(c2)OCO3)c2cc(OC)c(OC)cc2c1=O [2-ethyl-1-keto-6,7-dimethoxy-N-piperonyl-isoquinoline-4-carboxamide] | 18.9 µM |  |
| CCC1=NN2C(=N)/C(=C\c3ccc(OCc4cc(=O)n5nc(CC)sc5n4)c(OC)c3)C(=O)N=C2S1 [2-ethyl-7-({4-[(E)-(2-ethyl-5-imino-7-oxo-5H-[1,3,4]thiadiazolo[3,2-a]pyrimidin-6(7H)-ylidene)methyl]-2-methoxyphenoxy}methyl)-5H-[1,3,4]thiadiazolo[3,2-a]pyrimidin-5-one] | > 80 µM |  |
| Cc1oc2c(c1C(=O)c1ccccc1)C(=O)C(=O)c1ccccc1-2 [2-methyl-3-(phenylcarbonyl)benzo[g][1]benzofuran-4,5-dione] |  | 78.3 µM |
| CC(C)(C)c1c(Cl)c(O)c(-c2ccccc2)c(=O)n1-c1ccccc1 [2-tert-butyl-3-chloranyl-6-oxidanyl-1,5-diphenyl-pyridin-4-one] | > 80 µM |  |
